In US20030171307A1, “Azalide antibiotic compositions” (Pfizer Inc., priority 2001, published 2003):

Assay: Equilibration of azalide isomers I and II in heated aqueous acid, HPLC (Table 1)
Assay type: physicochemical
Details: isomer I prior to equilibration, for comparison

CCCNC[C@]1(O)[C@H](C)O[C@@H](O[C@H]2[C@H](C)[C@@H](OC3O[C@H](C)C[C@H](N(C)C)[C@H]3O)C(C)(O)C[C@@H](C)CN[C@H](C)[C@@H](O)[C@](C)(O)[C@@H](CC)OC(=O)[C@@H]2C)C[C@@]1(C)OC (single isomer, unassigned) [isomer I]
% Equilibrium mixture of isomers: 98.39%
% Impurities: 1.61%
